Common to all, as to test: Cytotoxicity assay (Version 2, automated, AC50) with/without neutrophil elastase
Common to all, as to settings: Version 2, activity concentration at −50%

One assay concerns NCI H292. The format is cell-based, human. Here is the method:
(§1) Cultivation of cells was performed according to standard procedures with the media recommended by the provider. The cells, in a total volume of 100 μL, were seeded in a 96-well plate with a white bottom (#3610). After a 24 h incubation period at 37° C. and […], the medium was exchanged by adding 90 μL fresh medium. The treatment started by adding the test compound in 10 μL of culture medium to the cells in triplicates. Concentrations ranging from 10^−5 M to 10^−13 M were chosen. Two identically treated sets of samples were prepared. One set was treated with the test compound alone, whereas to the second set the compound and 10 nM elastase was added followed by a 72 h incubation period at 37° C. and […]. The proliferation was detected using the MTT assay (ATCC). At the end of the incubation period the MTT reagent was added to all samples for 4 h. Lysis of the cells followed by addition of the detergent was done overnight. The formed dye was detected at 570 nm. The proliferation of untreated but otherwise identically handled cells was define as the 100% value.
(§2) The cytotoxicity assay (Version 2) was performed as described above. Some changes were applied as the assays were performed in an automated fashion and the IC50 values determination was changed. Here the change in metabolic activity of the cells, in percent, was calculated by normalization of the measured values to the absorbance values of medium containing wells without cells (═−100%) and the absorbance of the DMSO-treated cells (═0%). AC50 values (activity concentration at −50%) were determined by means of a 4 parameter Hill-fit using GeneData Screener software.

In the next assay the test system is 786-O. Format: cell-based, human. The protocol:
as §1, §2

Another assay has as its system HT29. Format: cell-based, human. The protocol:
as §1, §2

The test system of the next assay is SUM149. The format is cell-based. Here is the method: as §1, §2
Where [1] appears, read: NCI H292, with (+) neutrophil elastase.
[2] abbreviates: NCI H292, without (−) neutrophil elastase.
The mark [3] stands for this setting: without (−) neutrophil elastase.
Where [4] appears, read: HT29, with (+) neutrophil elastase.
Where [5] appears, read: HT29, without (−) neutrophil elastase.
The mark [6] stands for this setting: SUM149, with (+) neutrophil elastase.
Where [7] appears, read: SUM149, without (−) neutrophil elastase.

For “disodium 1-{(2S)-2-(carboxylatomethyl)-17-[4-({[(1R)-2-carboxylato-1-{3-[({3-[(propylcarbamoyl)amino]phenyl}sulfonyl)amino]phenyl}ethyl]carbamoyl}amino)anilino]-4,17-dioxo-7,10,13-trioxa-3,16-diazaheptadecan-1-oyl}-L-prolyl-N—[(R*)—{[15,19-difluoro-3,4-dihydro-2H,11H-10,6-(azeno)-12,16-(metheno)-1,5,11,13-benzodioxadiazacyclooctadecin-8-yl]methyl}(methyl)oxido-lambda^6-sulfanylidene]-L-valinamide [Compound 42]”, the AC50 (as a rule, the concentration at which the activity in the assay is half-maximal) in the assay with NCI H292 (setting [1]) was not above 10 nM; in the assay on NCI H292 (setting [2]), 100 to 1000 nM; in the assay on 786-O (with (+) neutrophil elastase) it was not above 10 nM; with 786-O (setting [3]), 100 to 1000 nM; in the assay with HT29 (setting [4]), not above 10 nM; in the assay on HT29 (setting [5]), more than 1000 nM. The values for the half-maximal activity concentration (AC50) with SUM149 (setting [6]) and in the assay with SUM149 (setting [7]) were not above 10 nM and 100 to 1000 nM, respectively.
As to `CCCNC(=O)Nc1cccc(S(=O)(=O)Nc2cccc([C@@H](CC(=O)O)NC(=O)Nc3ccc(NC(=O)NCCOCCOCCOCCC(=O)N[C@@H](CC(=O)O)C(=O)N4CCC[C@H]4C(=O)N[C@H](C(=O)N=[S@@](C)(=O)Cc4cc5nc(c4)OCCCOc4cc(F)ccc4-c4cc(ncc4F)N5)C(C)C)cc3)c2)c1` (racemic) [Compound 37, N-(14-{4-[({(1R)-2-carboxy-1-[3-({3-[(propylcarbamoyl)amino]benzene-1-sulfonyl}amino)phenyl]ethyl}carbamoyl)amino]anilino}-14-oxo-4,7,10-trioxa-13-azatetradecanan-1-oyl)-L-alpha-aspartyl-L-prolyl-N—[(RS)—{[15,19-difluoro-3,4-dihydro-2H,11H-10,6-(azeno)-12,16-(metheno)-1,5,11,13-benzodioxadiazacyclooctadecin-8-yl]methyl}(methyl)oxo-lambda^6-sulfanylidene]-L-valinamide], the AC50 in the assay on NCI H292 (setting [1]) is not above 10 nM; in the assay with NCI H292 (setting [2]), 100 to 1000 nM; in the assay with 786-O (with (+) neutrophil elastase) it was not above 10 nM; in the assay on 786-O (setting [3]), 100 to 1000 nM; in the assay on HT29 (setting [4]), not above 10 nM; in the assay with HT29 (setting [5]), 100 to 1000 nM. The AC50 in the assay with SUM149 (setting [6]) was not above 10 nM; in the assay on SUM149 (setting [7]), 100 to 1000 nM.
`CCCNC(=O)Nc1cccc(S(=O)(=O)Nc2cccc([C@H](CC(=O)O)NC(=O)Nc3ccc(NC(=O)NCCOCCOCCOCCC(=O)NCCCC[C@H](NC(=O)CCOCCOCCOCCNC(=O)Nc4ccc(NC(=O)N[C@@H](CC(=O)O)c5cccc(NS(=O)(=O)c6cccc(NC(=O)NCCC)c6)c5)cc4)C(=O)NCCN(C)CCN(C)CCN(C)CC(=O)N[C@@H](CC(N)=O)C(=O)N4CCC[C@H]4C(=O)N[C@H](C(=O)N=[S@@](C)(=O)Cc4cc5cc(c4)O[C@@H](C)CCOc4cc(F)ccc4-c4nc(ncc4F)N5)C(C)C)cc3)c2)c1` (relative stereo) [Compound 29]: the half-maximal activity concentration (AC50) in the assay on NCI H292 (setting [1]) was not above 10 nM; in the assay with NCI H292 (setting [2]), 100 to 1000 nM; in the assay with 786-O (with (+) neutrophil elastase), not above 10 nM; in the assay on 786-O (setting [3]) it was more than 1000 nM; with HT29 (setting [4]), not above 10 nM; with HT29 (setting [5]), 100 to 1000 nM. For the same compound, the AC50 with SUM149 (setting [6]) is not above 10 nM; with SUM149 (setting [7]) it was 100 to 1000 nM.
Take `CCCNC(=O)Nc1cccc(S(=O)(=O)Nc2cccc([C@H](CC(=O)O)NC(=O)Nc3ccc(NC(=O)NCCOCCOCCOCCC(=O)N[C@@H](CCCCNC(=O)CCOCCOCCOCCNC(=O)Nc4ccc(NC(=O)N[C@H](CC(=O)O)c5cccc(NS(=O)(=O)c6cccc(NC(=O)NCCC)c6)c5)cc4)C(=O)NCCOCCOCCOCCC(=O)N[C@@H](CC(=O)O)C(=O)N4CCC[C@H]4C(=O)N[C@H](C(=O)N=S(C)(=O)Cc4cc5nc(c4)OCCCOc4cc(F)ccc4-c4cc(ncc4F)N5)C(C)C)cc3)c2)c1` (relative stereo) [Compound 32]: the AC50 in the assay on NCI H292 (setting [1]) is not above 10 nM; with NCI H292 (setting [2]) it was 100 to 1000 nM; in the assay on 786-O (with (+) neutrophil elastase) it was not above 10 nM; in the assay with 786-O (setting [3]), 100 to 1000 nM; in the assay with HT29 (setting [4]), not above 10 nM; with HT29 (setting [5]) it was more than 1000 nM. In addition, the AC50 in the assay on SUM149 (setting [6]) is not above 10 nM; in the assay on SUM149 (setting [7]), 100 to 1000 nM.
Regarding `CCCNC(=O)Nc1cccc(S(=O)(=O)Nc2cccc([C@@H](CC(=O)O)NC(=O)Nc3ccc(NC(=O)NCCOCCOCCOCCC(=O)N[C@@H](CC(=O)O)C(=O)N4CCC[C@H]4C(=O)N[C@H](C(=O)N=[S@](C)(=O)Cc4cc5nc(c4)O[C@H](C)CCCCOc4cc(F)ccc4-c4cc(ncc4F)N5)C(C)C)cc3)c2)c1` (relative stereo) [Compound 56], the AC50 in the assay on NCI H292 (setting [1]) was 11 to 100 nM; with NCI H292 (setting [2]) it was more than 1000 nM; in the assay on 786-O (with (+) neutrophil elastase), 11 to 100 nM; with 786-O (setting [3]), more than 1000 nM; in the assay with HT29 (setting [4]), 11 to 100 nM; with HT29 (setting [5]), more than 1000 nM. For the same compound, the AC50 lay within 11 to 100 nM in the assay with SUM149 (setting [6]) and 100 to 1000 nM in the assay with SUM149 (setting [7]).
`CCCNC(=O)Nc1cccc(S(=O)(=O)Nc2cccc([C@@H](CC(=O)O)NC(=O)Nc3ccc(NC(=O)NCCOCCOCCOCCC(=O)N[C@@H](CC(=O)OCCCCN(C)C)C(=O)N4CCC[C@H]4C(=O)N[C@H](C(=O)N=S(C)(=O)Cc4cc5cc(c4)OCCCCOc4cc(F)ccc4-c4nc(ncc4F)N5)C(C)C)cc3)c2)c1` (single isomer, unassigned) [Compound 21]: the AC50 was 11 to 100 nM with NCI H292 (setting [1]); 100 to 1000 nM with NCI H292 (setting [2]); 11 to 100 nM with 786-O (with (+) neutrophil elastase); more than 1000 nM in the assay with 786-O (setting [3]); 11 to 100 nM in the assay on HT29 (setting [4]); more than 1000 nM with HT29 (setting [5]). Also, the AC50 in the assay with SUM149 (setting [6]) fell in the range of 11 to 100 nM; in the assay on SUM149 (setting [7]), 100 to 1000 nM.
`CCCNC(=O)Nc1cccc(S(=O)(=O)Nc2cccc([C@@H](CC(=O)O)NC(=O)Nc3ccc(NC(=O)NCCOCCOCCOCCC(=O)NCCNC(=O)CC[C@H](NC(=O)CCCC(=O)NCCN(C)CCN(C)CCN(C)CC(=O)N[C@@H](CC(N)=O)C(=O)N4CCC[C@H]4C(=O)N[C@H](C(=O)N=[S@@](C)(=O)Cc4cc5cc(c4)OCCCCOc4cc(F)ccc4-c4nc(ncc4F)N5)C(C)C)C(=O)NCCNC(=O)CCOCCOCCOCCNC(=O)Nc4ccc(NC(=O)N[C@H](CC(=O)O)c5cccc(NS(=O)(=O)c6cccc(NC(=O)NCCC)c6)c5)cc4)cc3)c2)c1` [Compound 25]: the concentration at half-maximal activity (AC50) in the assay on NCI H292 (setting [1]) is 11 to 100 nM; in the assay with 786-O (with (+) neutrophil elastase) it was 11 to 100 nM; in the assay with 786-O (setting [3]), more than 1000 nM; in the assay with HT29 (setting [4]) it was 11 to 100 nM; in the assay on HT29 (setting [5]), more than 1000 nM; with SUM149 (setting [6]), 11 to 100 nM. The concentration at half-maximal activity (AC50) in the assay with SUM149 (setting [7]) lay in the range of 100 to 1000 nM.
Turning to `CCCNC(=O)Nc1cccc(S(=O)(=O)Nc2cccc([C@@H](CC(=O)O)NC(=O)Nc3ccc(NC(=O)NCCN(C)CCN(C)CCN(C)CC(=O)N[C@@H](CC(N)=O)C(=O)N4CCC[C@H]4C(=O)N[C@H](C(=O)N=[S@@](C)(=O)Cc4cc5cc(c4)O[C@@H](C)CCOc4cc(F)ccc4-c4nc(ncc4F)N5)C(C)C)cc3)c2)c1` (single isomer, unassigned) [Compound 24], the AC50 with NCI H292 (setting [1]) is not above 10 nM; in the assay with NCI H292 (setting [2]) it was 100 to 1000 nM; in the assay on 786-O (with (+) neutrophil elastase) it was not above 10 nM; in the assay on 786-O (setting [3]) it was 100 to 1000 nM; in the assay with HT29 (setting [4]), not above 10 nM; in the assay with HT29 (setting [5]) it was 100 to 1000 nM. The concentration at half-maximal activity (AC50) is not above 10 nM in the assay on SUM149 (setting [6]) and 100 to 1000 nM in the assay on SUM149 (setting [7]).
As to `CCCNC(=O)Nc1cccc(S(=O)(=O)Nc2cccc([C@H](CC(=O)O)NC(=O)Nc3ccc(NC(=O)NCCN(C)CCN(C)CCN(C)CC(=O)N[C@@H](CC(N)=O)C(=O)N4CCC[C@H]4C(=O)N[C@H](C(=O)N=S(C)(=O)Cc4cc5nc(c4)OCCCOc4cc(F)ccc4-c4cc(ncc4F)N5)C(C)C)cc3)c2)c1` (mixture of isomers) [Compound 23], the AC50 with NCI H292 (setting [1]) was not above 10 nM; in the assay with NCI H292 (setting [2]), 100 to 1000 nM; in the assay on 786-O (with (+) neutrophil elastase), not above 10 nM; in the assay on 786-O (setting [3]), 100 to 1000 nM; in the assay on HT29 (setting [4]), not above 10 nM; with HT29 (setting [5]), 100 to 1000 nM. In addition, the results for the AC50 with SUM149 (setting [6]) and in the assay with SUM149 (setting [7]) were not above 10 nM and 100 to 1000 nM, respectively.
Consider `CCCNC(=O)Nc1cccc(S(=O)(=O)Nc2cccc([C@@H](CC(=O)O)NC(=O)Nc3ccc(NC(=O)NCCOCCOCCOCCC(=O)N[C@@H](CC(=O)O)C(=O)N4CCC[C@H]4C(=O)N[C@H](C(=O)N=S(C)(=O)Cc4cc5cc(c4)OCCCCOc4cc(F)ccc4-c4nc(ncc4F)N5)C(C)C)cc3)c2)c1` (relative stereo) [Compound 36], for which the AC50 lay in the range of 11 to 100 nM in the assay with NCI H292 (setting [1]); 100 to 1000 nM in the assay on NCI H292 (setting [2]); 11 to 100 nM in the assay on 786-O (with (+) neutrophil elastase); 100 to 1000 nM in the assay on 786-O (setting [3]); 11 to 100 nM in the assay on HT29 (setting [4]); 100 to 1000 nM in the assay with HT29 (setting [5]). Also, the concentration at half-maximal activity (AC50) fell in the range of 11 to 100 nM in the assay with SUM149 (setting [6]) and 100 to 1000 nM in the assay with SUM149 (setting [7]).
